The values below come from patent US20240124539A1, “CROSSLINKED HELIX DIMER MIMICS OF SOS AND METHODS OF USING SAME” (NEW YORK UNIVERSITY, priority 2020, published 2024).

In data set [1] the test system is ERK phosphorylation in H358 cells. The experiment in a line: ERK activation assay, H358. Particulars: H358 cells, 1, 5, 10 μM, 6 hours. The format is cell-based. As to the method:
(§1) H358 or HeLa cells were initially seeded in 6-well plates (1x10^6 cells/well) and allowed to attach overnight. The cells were then incubated with indicated peptides dissolved in complete medium at specified concentrations for 6 hours at 37° C. The cells were washed twice with ice-cold PBS and then lysed in cold RIPA buffer (200 μL/well) containing 25 mM Tris-HCl, pH 7.6, 150 mM NaCl, 1% NP-40, 1% sodium doexycholic acid, 0.1% SDS, Roche Complete Protease inhibitor cocktail (1X, Sigma-Aldrich, P2714), and Roche PhosSTOP phosphatase inhibitor cocktail tablets (1X, Sigma-Aldrich, 4906845001). The cells are kept on ice for 5 minutes with occasional swirling for uniform spreading. Cell lysates are generated with a cell scraper, transferred to a microcentrifuge tube, and centrifuged at 13,000 rpm for 10 minutes at 4° C. The clarified supernatant was collected, and the total protein concentration was measured by Pierce BCA protein assay. The lysates were subjected to SDS-PAGE (10 μg/lane loading) and Western Blot analysis via immunoblotting. Primary antibodies include Phospho-p44/42 MAPK (Erk1/2) (Thr202/Tyr204) (Cell Signaling 4370), p44/42 MAPK (Erk1/2) (Cell Signaling 4695), Ras (Abcam ab 108602), and a-tubulin (Cell Signaling 2144). Secondary antibodies include anti-rabbit IgG, HRP-linked antibody (Cell Signaling 7074P2, 1:2000). […]

Data set [2] concerns ERK phosphorylation in HeLa cells. Put plainly: ERK activation assay, HeLa. To be noted: HeLa cells (wild-type Ras), 1, 5, 10 μM, 6 hours. The format is cell-based. As to the method:
as §1

The target of a further data set is T1, wild-type H-Ras-GDP (Homo sapiens, UniProt P01112).
T1 construct: Wild-type and mutant N-terminal His6-H-Ras (residues 1-166) in pProEx HTb expression vector; His6 (N); made in house; host or cells: Escherichia coli (BL21)
Put plainly: Microscale thermophoresis (MST), wild-type H-Ras-GDP. The format is binding. The method, then: Fluorescent labeling of the H-Ras protein was performed using the Monolith Protein Labeling Kit RED-MALEIMIDE 2nd Generation from NanoTemper (MO-L014) or AFDye 647 maleimide fluoroprobes (1122-1). Briefly, 20 nM of H-Ras protein was labeled with 1.5 equivalents of cysteine reactive dye in the 1× PBS under dark for 90 minutes. Labeled Ras proteins were then purified via the kit provided column, and the Degree of Label (DOL) was calculated by using the dye's absorbance and protein's original absorbance. The observed DOL value after the labeling for wild-type H-Ras-GDP was 0.43 and G12V H-Ras-GDP was 0.98.
MST binding assays were conducted with NanoTemper Monolith NT.115 Pico. Assay conditions were optimized with a premium coated capillary tube from NanoTemper to avoid random adsorption. Measurement was performed at 25° C. using 10-15% laser excitation power for 20 seconds. The assay buffer was composed of 50 mM Tris, 100 mM NaCl, and 0.1% pluronic acid. 5-10 nM of the dye labeled protein was exposed to serial dilutions of indicated CHDs and incubated for 90 mins in room temperature before the measurements. Error bars are generated from triplicates. Binding affinities were obtained from the MO analysis software in NT.115 Pico with the following equation:
[formula] [formula] • where, Unbd=Response value of unbound state Bd=Response value of bound state TC=Final concentration of fluorescent molecule

A further data set has as its system H358 cells. The experiment in a line: Flow cytometry cellular uptake, H358. The format is cell-based. Particulars: fluorescently labeled peptide 1 μM, 1 h. The method, then: (§2) All compounds are dissolved as concentrated stocks in DMSO.
For a further data set, the system named is T24 cells. Put plainly: Flow cytometry cellular uptake, T24. It is filed as cell-based. To be noted: fluorescently labeled peptide 1 μM, 1 h. As to the method: as §2
The target in data set [3] is T2, wild-type His6-tagged H-Ras (1-166) pre-loaded with GDP (Homo sapiens, UniProt P01112).
T2 construct: wild-type and mutant His6-tagged H-Ras (1-166) pre-loaded with GDP; made in house; host or cells: Escherichia coli (BL21)
The experiment in a line: Fluorescence polarization binding assay, wild-type H-Ras-GDP. The text has this: GTP of the Ras-specific nucleotide exchange factor SOS. Cell 112, 685-695 (2003).
On the technique in general: Polarisation of emitted light reports the rotation of a fluorescent probe.

The test system of data set [4] is Ras wild type and mutant cell lines. The experiment in a line: MTT cell viability assay. It is filed as cell-based. To be noted: 72 hours, in presence of serum; oncogenic Ras mutant cell lines in comparison to wild-type Ras HeLa control. As to the method: Cell viability was monitored using the MTT (Sigma-Aldrich, M2128) or CellTiter-Glo Luminescent cell viability assay (Promega).
Cell viability was monitored using the MTT (Sigma-Aldrich, M2128) […] cell viability assay. Cells were plated in clear 96-well plates at 2000 cells/well and allowed to affix overnight at 37° C. Each well is gently aspirated and washed with serum-free medium before introducing peptide inhibitors dissolved in complete medium with 0.5% DMSO (v/v final) to desired concentrations (90 μL/well). The cells are incubated in the presence of peptide for 72 hours at 37° C. MTT reagent solution is composed of Thiazolyl Blue Tetrazolium Bromide dissolved in Dulbecco's Phosphate Buffered Saline (DPBS), pH 7.4 to a concentration of 5 mg/mL and subsequently sterile-filtered into a light-protected container. MTT reagent was added to each well (0.45 mg/mL/well final). The cells are incubated at 37° C. for an additional 4 hours. Upon careful removal of the supernatant, 150 μL DMSO (solubilization solution) is added to each well and mixed to ensure complete solubilization and release of the insoluble purple formazan precipitate into solution. Absorbance values are recorded with a Synergy HT Multi-Detection Microplate Reader (BioTek) at 570 nm.
(Tetrazolium assays rely on reduction of a dye to a coloured formazan, in cell work by metabolically active cells.)

The conditions of data set [5]: compared to CHD^Sos-2.
In the next data set the test system is SW780 cells. Particulars: SW780 cells (oncogenic FGFR3 fusions), 1 μM, 1 h.
The target of data set [6] is G12D mutant H-Ras pre-loaded with GDP (Homo sapiens, UniProt P01112, G12D). As to the method:
(§3) Wild-type and mutant N-terminal His6-H-Ras (residues 1-166) in pProEx HTb expression vector were expressed in Escherichia coli (BL21). Cells were grown at 37 ° C. to an absorbance of 0.7 at 600 nm. Protein expression was induced with 500 μM isopropyl β-D-1-thiogalactopyranoside (IPTG) for 6 hours at 30° C. or overnight at 18° C. The bacterial cells were pelleted via centrifugation at 4500 rpm for 15 minutes. Bacterial pellets were resuspended in a lysis buffer containing 20 mM Tris pH 7.4, 300 mM NaCl, 2 mM 2-mercaptoethanol, and a complete, EDTA-free protease inhibitor cocktail (Roche). The lysis, elution and dialysis buffers were also supplemented with 2.5 mM MgCl2. The resuspended pellets were sonicated using a Branson Cell Disrupter 200. Clarified lysates were formed upon centrifugation at 13,000 rpm for 20 minutes at 4° C. and incubated with charged Ni-NTA resin (Invitrogen) at 4° C. for 1 hour. The resin beads were washed five times with resuspension buffer containing 5 mM imidazole. The His6-tagged proteins were eluted via gravity flow with buffer containing 200 mM imidazole in buffer containing 20 mM Tris, 300 mM NaCl, pH 7.4. Eluted proteins were dialyzed twice against buffer containing 20 mM Tris, 300 mM NaCl, 2.5 mM MgCl2, pH 7.4 for H-Ras. For HSQC and photoaffinity labeling studies, the polyhistidine tag was cleaved using Tobacco Etch Virus (TEV) protease before proceeding to nucleotide loading.
(§4) The generated binding affinity (KD) values for each compound are from biological triplicate studies and were determined via fitting to a sigmoidal dose-response nonlinear regression model on Graphpad Prism 6.

In data set [7] the target is G12V mutant H-Ras pre-loaded with GDP (Homo sapiens, UniProt P01112, G12V). The method, then:
as §3, §4

Data set [8] deals with G12C mutant H-Ras pre-loaded with GDP (Homo sapiens, UniProt P01112, G12C). The method, then:
as §3, §4

Another data set in a line: in vitro. Particulars: bovine, 25% fetal bovine serum.

Where two headings read alike, the source gives them in different places. Residues, ends and D or L forms follow the SMILES beside them.

T1 sequence (P01112 1-166): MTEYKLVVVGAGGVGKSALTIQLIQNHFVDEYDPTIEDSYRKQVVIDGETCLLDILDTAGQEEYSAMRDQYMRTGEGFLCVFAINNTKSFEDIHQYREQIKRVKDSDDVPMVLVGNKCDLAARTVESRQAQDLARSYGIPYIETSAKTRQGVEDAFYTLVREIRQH
T2 sequence (P01112 1-166): as above
Chain of G12D mutant H-Ras pre-loaded with GDP (P01112 1-166 G12D): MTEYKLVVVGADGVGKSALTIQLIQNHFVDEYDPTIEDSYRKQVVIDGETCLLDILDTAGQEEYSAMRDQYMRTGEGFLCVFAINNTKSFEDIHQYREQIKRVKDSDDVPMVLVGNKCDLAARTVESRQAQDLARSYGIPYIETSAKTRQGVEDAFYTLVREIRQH
Chain of G12V mutant H-Ras pre-loaded with GDP (P01112 1-166 G12V): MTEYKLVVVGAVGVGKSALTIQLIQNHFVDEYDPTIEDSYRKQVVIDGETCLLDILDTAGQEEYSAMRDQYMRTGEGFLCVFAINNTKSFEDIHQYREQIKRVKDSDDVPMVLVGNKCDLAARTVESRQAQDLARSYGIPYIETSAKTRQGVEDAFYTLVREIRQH
Chain of G12C mutant H-Ras pre-loaded with GDP (P01112 1-166 G12C): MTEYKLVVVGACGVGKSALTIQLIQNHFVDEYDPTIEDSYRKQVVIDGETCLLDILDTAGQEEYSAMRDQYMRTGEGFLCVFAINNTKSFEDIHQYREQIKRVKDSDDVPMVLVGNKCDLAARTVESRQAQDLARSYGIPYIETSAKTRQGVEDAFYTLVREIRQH
Protocol for SW780 cells: The indicated cell lines were seeded at 1×10^5 cells/well in clear polystyrene 24-well plates (Corning) and incubated overnight. The initial growth medium is replaced with serum-free medium and incubated for 2 hours at 37° C. Upon aspiration, the cells are incubated in serum-free medium containing 0.4% DMSO (v/v) for one hour. The cells were then treated with 1 μM (final) of fluorescein-conjugated peptides in serum-free medium for another hour while protected from light. All compounds are dissolved as concentrated stocks in DMSO. Each well was aspirated and treated with 1× trypsin (0.25% trypsin, 2.21 mM EDTA, Corning Cellgro) for 10 minutes at 37° C. After trypsinization, the resulting solution was mixed with cold serum-free medium and collected. The samples are centrifuged at 500 rpm for 5 minutes at 4 °C.
The supernatant was removed, and the cell pellets were resuspended with cold PBS before placed on ice. Each sample was treated with 10% trypan blue (v/v) immediately before analysis by flow cytometry on a Becton Dickinson Accuri flow cytometer. The presented data consists of the median fluorescence intensities for at least 10,000 cells/sample and processed using FlowJo (Tree Star Inc.).
Protocol for in vitro: A 45 μL mixture of 33% FBS (v/v) in serum-free medium was prepared for each sample. The addition of 15 μL of indicated peptide in serum-free medium (25% FBS final) per each experiment was recorded as the starting time point. Time points of 5 min, 6 hours, 12 hours, and 24 hours were analyzed in triplicate. Each experiment was quenched at the determined time point by adding 30 μL 100% EtOH, which was prepared at −70° C. After cooling on ice for 10 minutes, each sample was pelleted at 14,000× g for 5 minutes. 30 μL of the supernatant was isolated, and 3 μL of 500 μM L-Tryptophan was titrated into the sample to be used as an internal standard. The resulting mixture was then immediately subjected to RP-HPLC with a C18 3.5 μm 2.1×150 mm analytical column and monitored at 280 nm. Eluting peaks were collected, and the mass of each peak was determined using MALDI-TOF spectroscopy. Integrated peak area of non-degraded peptides was used to determine the percent surviving in each given condition.

The Kd is the equilibrium constant for the complex coming apart. On to `CC[C@H](C)[C@H](NC(=O)[C@H](C)NC(C)=O)C(=O)NCC(=O)N[C@@H](CCCNC(=N)N)C(=O)N[C@@H](CC(C)C)C(=O)N[C@@H](CSCc1ccc(COCc2ccc(CSC[C@H](NC(=O)[C@H](CC(C)C)NC(=O)[C@H](CCCNC(=N)N)NC(=O)[C@H](C)NC(=O)[C@H](CC(C)C)NC(=O)[C@H](CCC(=O)O)NC(=O)[C@H](CCCNC(=N)N)NC(=O)[C@H](CCC(=O)O)NC(=O)[C@H](CC(C)C)NC(=O)[C@H](CCC(=O)O)NC(=O)[C@H](CCCNC(=N)N)NC(=O)[C@H](CC(C)C)NC(=O)[C@H](CCCNC(=N)N)NC(=O)[C@H](Cc3c[nH]c4ccccc34)NC(=O)[C@H](C)NC(=O)[C@H](CC(C)C)NC(C)=O)C(N)=O)cc2)cc1)C(=O)N[C@H](C(=O)N[C@@H](CCC(=O)O)C(=O)N[C@H](C(=O)N[C@@H](CC(C)C)C(=O)N[C@@H](CCCNC(=N)N)C(=O)N[C@@H](CC(C)C)C(=O)N[C@@H](CCCNC(=N)N)C(=O)N[C@@H](CC(N)=O)C(=O)NCC(=O)N[C@@H](C)C(N)=O)[C@@H](C)CC)[C@@H](C)O` [CHC^Sos-3] (HELM PEPTIDE1{[ac].A.I.G.R.L.C.T.E.I.L.R.L.R.N.G.A.[am]}|PEPTIDE2{[ac].L.A.W.R.L.R.E.L.E.R.E.L.A.R.L.C.[am]}|CHEM1{[c1cc(C[*:1])ccc1COCc1ccc(C[*:2])cc1]}$PEPTIDE1,CHEM1,7:R3-1:R1|PEPTIDE2,CHEM1,17:R3-1:R2$$$V2.0), for which the “effect on ERK phosphorylation” value in [1] and in data set [2] was “did not suppress ERK phosphorylation” in each case. For the same compound, the “concentration above which aggregation was observed” value at wild-type H-Ras-GDP (MST with wild-type H-Ras-GDP, interrupted binding isotherm) is reported as “higher than 3 μM”. For the same compound, the Kd is above 100000 nM at wild-type H-Ras-GDP (MST, fluorescently-labeled Ras, read-out: binding affinity, Kd) and above 100000 nM in [3] (fluorescein-derivatized CHD, GDP-bound wild-type H-Ras, fluorescence polarization, read-out: binding affinity, Kd). Also, the “cellular uptake, median fluorescence intensity” value with H358 cells and in the data set on T24 cells was “lower uptake than CHC^Sos-5” in each case. In addition, in data set [4], the “cell viability (MTT)” value is listed as “little to no effect”.

Broadly, the half-life is the time needed for the level to fall by half in the phase considered. Low readings indicate fast loss, high ones slow loss. As a reminder, the amount remaining is the share of the starting amount still present when the sample was taken. With `CC[C@H](C)[C@H](NC(=O)[C@H](Cc1c[nH]c2ccccc12)NC(C)=O)C(=O)NCC(=O)N[C@@H](CCCNC(=N)N)C(=O)N[C@@H](CC(C)C)C(=O)N[C@@H](CSCc1ccc(COCc2ccc(CSC[C@H](NC(=O)[C@H](CC(C)C)NC(=O)[C@H](CCCNC(=N)N)NC(=O)[C@H](C)NC(=O)[C@H](CC(C)C)NC(=O)[C@H](CCC(=O)O)NC(=O)[C@H](CCCNC(=N)N)NC(=O)[C@H](CCC(=O)O)NC(=O)[C@H](CC(C)C)NC(=O)[C@H](CCC(=O)O)NC(=O)[C@H](CCCNC(=N)N)NC(=O)[C@H](CC(C)C)NC(=O)[C@H](CCCNC(=N)N)NC(=O)[C@H](Cc3c[nH]c4ccccc34)NC(=O)[C@H](C)NC(=O)[C@H](CC(C)C)NC(C)=O)C(N)=O)cc2)cc1)C(=O)N[C@H](C(=O)N[C@@H](CCC(=O)O)C(=O)N[C@H](C(=O)N[C@@H](CCCCNC(=N)N)C(=O)N[C@@H](CCCNC(=N)N)C(=O)N[C@@H](CC(C)C)C(=O)N[C@@H](CCCNC(=N)N)C(=O)N[C@@H](CC(N)=O)C(=O)NCC(=O)N[C@@H](CC(N)=O)C(N)=O)[C@@H](C)CC)[C@@H](C)O` [CHC^Sos-5] (HELM PEPTIDE1{[ac].L.A.W.R.L.R.E.L.E.R.E.L.A.R.L.C.[am]}|PEPTIDE2{[ac].W.I.G.R.L.C.T.E.I.[N=C(N)NCCCC[C@H](N[*:1])C(=O)[*:2]].R.L.R.N.G.N.[am]}|CHEM1{[c1cc(C[*:1])ccc1COCc1ccc(C[*:2])cc1]}$PEPTIDE1,CHEM1,17:R3-1:R1|PEPTIDE2,CHEM1,7:R3-1:R2$$$V2.0), the aqueous solubility result in data set [5] is recorded as “improves its aqueous solubility”. For the same compound, the Kd turned out to be 300 ± 100 nM at wild-type H-Ras-GDP and 2000 ± 300 nM in data set [3]. For the same compound, the cellular uptake result with SW780 cells is on record as “permeable”. Besides, the binding affinity entry in data set [6], in data set [7] and in data set [8] was “low micromolar affinity range” throughout. In addition, the half-life in “in vitro” is above 24 h. The compound further gave a share remaining at 24 h in “in vitro” of around 60%.
